Laboratory results taken from patent publication US9682931B2, “Aryloyl(oxy or amino)pentafluorosulfanylbenzene compound, pharmaceutically acceptable salt thereof, and prodrugs thereof” (UBE INDUSTRIES, LTD., priority 2013, dated 2017).
Converted amounts (≈) assume the structure as drawn.

Key:
[1] = tested on: TNF-α mRNA expression in RBL-2H3 cells; assay: Validation test in RBL-2H3 cell: TNF-α mRNA expression by antigen stimulation (Real-time PCR); format: cell-based, Rat; conditions: for TNF-α mRNA expression level: untreated control as 100
Description: 2. Validation Test in RBL-2H3 Cell
(Effect on Inflammation Mediator mRNA Expression by Antigen Stimulation)
After a cell model for an allergic reaction, RBL-2H3 cells, were stimulated by an antigen, mRNA expression level of a typical inflammation mediator, TNF-α, in the cell was measured by a Real-time PCR method. In this manner, a confirmation test for anti-inflammatory effect of Compound 3 was performed.
A test substance (Compound 3) (50 mg) was dissolved by adding 50 vol % ethanol (1 mL) to this to obtain an ethanol solution having a concentration of 50 mg/mL. The resultant solution was diluted with a medium. […] As a control (for comparison), Wortmannin (10 μM) was used. Herein, the concentrations were all indicated as the concentrations in cell supernatants.
RBL-2H3 cells were sensitized with anti-DNP-IgE antibody for 2 hours. A medium or a test solution was added and heat was applied at 37° C. for 10 minutes and then, a DNP-HSA solution was added. A reaction was carried out at 37° C. for 30 minutes. After completion of the reaction, total RNA was extracted from a cell fraction and cDNA was synthesized by use of Random Primer and Reverse Transcriptase. After a specific primer for a desired gene (ITNF-α,β-actin) was added, a Real-time PCR method was carried out in accordance with SYBR Green method using the resultant cDNA as a template to determine the expression level of mRNA. The expression ratio of the desired gene relative to a housekeeping gene, β-actin, was calculated. In this manner, a change in expression level relative to an untreated control was calculated.
Main test conditions and outline of the operation will be described below.
Cell: Rat basophil leukemic cell, RBL-2H3 [Human Sciences Foundation]
Antigen stimulation: Anti-DNP-IgE antibody, DNP labeled albumin
[Sigma-Aldrich Corporation]
Desired genes: IL-4, MCP-1, TNF-α, β-actin (housekeeping gene)
Measurement apparatus: StepOnePlus Real-Time PCR System [Life
Technologies Corporation] Measurement conditions: 95° C. (20 sec)→{95° C. (3 sec)→60° C. (30 sec)}×40 cycles
mRNA expression level (%) was obtained based on the expression level of the untreated control as 100.

Hep G2 (liver cancer) = assay: Evaluation of anticancer action, cell proliferation inhibition (WST-8), Hep G2; format: cell-based; conditions: Homo sapiens, HepG2, Hep G2, about 72 hours
Text: (§1) The cell proliferation inhibitory effects of a test substance (Compound 3) on various types of cancer cells were examined.
(§2) 1. Measuring Reagent and Analysis Software
(§3) WST-8 Kit (Cat. No. 260-96165 or 260-96162; manufactured by Kishida Chemical Co., Ltd.) for counting cell number
(§4) Software for graph making and measurement of GI50 value: XLfit 5.2 (ID Business Solutions Ltd.)
(§5) 2. Cells and Culture Conditions
(§6) Five types of cells and medium (the following Table) were used. The cells were obtained from the Research Resource Bank of the Human Sciences Foundation.
(§7) On the day when a sample was to be added, the sample was weighed and a medium for each type of cells was added so as to be 500 μg/mL. Sonication was performed while warming at 37° C. for 60 minutes to be dissolved. Then, filtration was performed by a 0.22 m-filter. The 500 μg/mL-solution was diluted with the medium for each type of cells to prepare 200 μg/mL, 60 μg/mL, 20 μg/mL, 6 μg/mL, 2 μg/mL, 0.6 μg/mL and 0.2 μg/mL solutions, which were specified as two-fold concentration test solutions (the final concentrations of the test substance were 250 µg/mL, 100 μg/mL, 30 μg/mL, 10 μg/mL, 3 μg/mL, 1 μg/mL, 0.3 μg/mL, […], respectively). […]
(§8) (8) Absorbance values at 450 nm and 650 nm were measured to calculate O.D. 450 and O.D. 650. […]
(§9) ODdrug-exposed wells: absorbance of a well containing a sample […]

MKN1 (stomach cancer) = assay: Evaluation of anticancer action, cell proliferation inhibition (WST-8), MKN1; format: cell-based; conditions: Homo sapiens, MKN-1, MKN1, about 72 hours
Text: as §1, §2, §3, §4, §5, §6, §7, §8, §9

## O=C(Nc1ccc(S(F)(F)(F)(F)F)cc1)c1cc(O)c(O)c(O)c1 [Compound 3, 4-(3,4,5-trihydroxybenzoylamino)pentafluorosulfanylbenzene]
[1]; RBL-2H3 cells, antigen stimulation
  suppression of TNF-α mRNA expression: Suppression of the mRNA expression TNF-α, one of inflammatory mediators, was confirmed
[1]; sample 1 μg/mL
  TNF-α mRNA expression level: 87%
[1]; sample 10 μg/mL
  TNF-α mRNA expression level: 69%
Hep G2 (liver cancer)
  GI50: 9.8 µg/mL (≈ 26.4 µM)
MKN1 (stomach cancer)
  GI50: 5.1 µg/mL (≈ 13.7 µM)
